One test relates to mice. To be noted: stated as known characteristic; cited from earlier work.
In another test the test system is Balb/C mice. As to the kind of experiment: Delay in tail-flick in mice from a standardized heat injury. It counts as in vivo. The method, then:
Using p-endorphin as prepared in Example 2 tests of the delay in tail-flick in mice from a standardized heat injury were conducted under our direction and control as follows: Inbred mice (in this case Balb/C males weighing 20 to 25 gms) were held in a special body holder in cotton and a standardized "heat-run" or lamp was held a standardized distance away from the base of the tail which was painted black with india ink to increase the amount of energy it absorbs. On the average, 3.5 seconds of this heat is enough to cause these mice to flick their tail in a vigorous fashion. This end-point is unmistakable. The standard deviation of 50 determinations of this kind is approximately 0.7 seconds. Therefore, the normal range of large numbers of these mice with multiple determinations would be about 2.2 to 4.8 seconds.
The data set forth below in Table 1 illustrate the amount of time for the onset of tail flicking by mice tested at various times after the injection of […] of p-endorphin (P-EP).

For the substance “beta-endorphin (YGGFMTSEKSQTPLVTLFKNAIIKNAYKKGE; Beta-endorphin; UniProt P01189 237-267, looked up) [endogenous opioid peptide hormone, 61 to 91 portion of beta lipotropin; standard]”, in the test on mice, the Staub tail result is listed as “characteristic”. Further, the delay in tail-flick entry with Balb/C mice (mice) is “more than 10 seconds”. The “amount required to obtain the same in vivo effect” value in the test with Balb/C mice (same tail-flick effect as 30 μg P-EP preparation) is “about 0.8 nanamoles per mouse”.

These data come from US4438104A, “Endorphins having placental or pancreatic origin” (Endorphin, Inc., priority 1982, dated 1984).
